Experimental data taken from PubChem BioAssay AID248 (DTP/NCI, 2004).
Where “and” joins values, the source holds several entries; their conditions need not be identical. Equal entries are not always repeated. Toxic doses and inconclusive results are not listed. No stated cut-off is given here; in the data, active means T/C of 150% or more; inactive means T/C below 125%.

Test system: L1210 leukemia ip in BDF1 mice, survival T/C
Experiment: NCI In Vivo Anticancer Drug Screen. Data for tumor model L1210 Leukemia (intraperitoneal) in B6D2F1 (BDF1) mice
Details: endpoint: mean survival time, higher = longer survival
Outline: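 Tumor cells were implanted, animals were treated, and survival was followed. The result divides the treated measurement by the vehicle-control measurement.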

[1] = dose: 100.0 mg/kg/injection, schedule: Q04DX002 (ip), vehicle: Klucel (hydroxypropylcellulose) (HPC)
[2] = dose: 200.0 mg/kg/injection, schedule: Q04DX002 (ip), vehicle: Klucel (hydroxypropylcellulose) (HPC)
[3] = dose: 400.0 mg/kg/injection, schedule: Q04DX002 (ip), vehicle: Klucel (hydroxypropylcellulose) (HPC)
[4] = dose: 100.0 mg/kg/injection, schedule: Q01DX009 (ip), vehicle: Klucel (hydroxypropylcellulose) (HPC)
[5] = dose: 200.0 mg/kg/injection, schedule: Q01DX009 (ip), vehicle: Klucel (hydroxypropylcellulose) (HPC)
[6] = dose: 400.0 mg/kg/injection, schedule: Q01DX009 (ip), vehicle: Klucel (hydroxypropylcellulose) (HPC)
[7] = dose: 100.0 mg/kg/injection, schedule: Q01DX001 (ip), vehicle: Klucel (hydroxypropylcellulose) (HPC)
[8] = dose: 100.0 mg/kg/injection, schedule: Q04DX003 (ip), vehicle: Klucel (hydroxypropylcellulose) (HPC)
[9] = dose: 200.0 mg/kg/injection, schedule: Q01DX001 (ip), vehicle: Klucel (hydroxypropylcellulose) (HPC)
[10] = dose: 100.0 mg/kg/injection, schedule: Q04DX003 (ip), vehicle: saline with Tween-80
[11] = dose: 200.0 mg/kg/injection, schedule: Q04DX003 (ip), vehicle: saline with Tween-80
[12] = dose: 400.0 mg/kg/injection, schedule: Q04DX003 (ip), vehicle: saline with Tween-80
[13] = dose: 100.0 mg/kg/injection, schedule: Q01DX009 (ip), vehicle: saline
[14] = dose: 200.0 mg/kg/injection, schedule: Q01DX009 (ip), vehicle: saline
[15] = dose: 100.0 mg/kg/injection, schedule: Q01DX009 (ip), vehicle: saline with Tween-80
[16] = dose: 200.0 mg/kg/injection, schedule: Q01DX009 (ip), vehicle: saline with Tween-80
[17] = dose: 400.0 mg/kg/injection, schedule: Q01DX009 (ip), vehicle: saline with Tween-80
[18] = dose: 100.0 mg/kg/injection, schedule: Q01DX001 (ip), vehicle: saline with Tween-80
[19] = dose: 100.0 mg/kg/injection, schedule: Q04DX003 (ip), vehicle: saline
[20] = dose: 200.0 mg/kg/injection, schedule: Q04DX003 (ip), vehicle: saline
[21] = dose: 400.0 mg/kg/injection, schedule: Q04DX003 (ip), vehicle: saline

Measured: T/C

CC(=O)Cc1c[nH]c2ccccc12
inactive: dose: 50.0 mg/kg/injection, schedule: Q01DX001 (ip), vehicle: carboxymethylcellulose (CMC) 103 % of control | dose: 100.0 mg/kg/injection, schedule: Q01DX001 (ip), vehicle: carboxymethylcellulose (CMC) 97 % of control | [1] 97 % of control | dose: 200.0 mg/kg/injection, schedule: Q01DX001 (ip), vehicle: carboxymethylcellulose (CMC) 106 % of control | [2] 101 % of control | dose: 400.0 mg/kg/injection, schedule: Q01DX001 (ip), vehicle: carboxymethylcellulose (CMC) 103 % of control | [3] 111 % of control

COc1ccc(Cl)cc1NC(=O)c1cccc([N+](=O)[O-])c1
inactive: [4] 98 % of control | [5] 98 % of control | [6] 102 % of control

COC(OC)c1cc(=O)[nH]c(=S)[nH]1
inactive: dose: 25.0 mg/kg/injection, schedule: Q04DX003 (ip), vehicle: Klucel (hydroxypropylcellulose) (HPC) 100 % of control | dose: 50.0 mg/kg/injection, schedule: Q01DX001 (ip), vehicle: Klucel (hydroxypropylcellulose) (HPC) 111 % of control | dose: 50.0 mg/kg/injection, schedule: Q04DX003 (ip), vehicle: Klucel (hydroxypropylcellulose) (HPC) 91 % of control | [7] 90 % of control | [8] 92 % of control | [9] 98 % of control

O=C(O)C1C2CC3CC(C2)CC1C3 (stereo not drawn)
inactive: [1] 105 % of control | [2] 94 % of control and 110 % of control | [3] 113 % of control | dose: 600.0 mg/kg/injection, schedule: Q04DX002 (ip), vehicle: Klucel (hydroxypropylcellulose) (HPC) 94 % of control

Cc1cccc2c(C)c3cccc[n+]3cc12
inactive: dose: 2.0 mg/kg/injection, schedule: Q01DX Z (ip), vehicle: carboxymethylcellulose (CMC) 113 % of control | dose: 4.0 mg/kg/injection, schedule: Q01DX Z (ip), vehicle: carboxymethylcellulose (CMC) 110 % of control | dose: 8.0 mg/kg/injection, schedule: Q01DX Z (ip), vehicle: carboxymethylcellulose (CMC) 113 % of control and 123 % of control | dose: 16.0 mg/kg/injection, schedule: Q01DX Z (ip), vehicle: carboxymethylcellulose (CMC) 115 % of control and 119 % of control

O=C1c2ccccc2C(=O)N1OCc1cc(Cl)sc1Cl
inactive: [10] 97 % of control | [11] 96 % of control | [12] 104 % of control

CCN(CC)c1ccc2c(c1)C(O)c1ccccc1-2 (stereo not drawn)
inactive: [10] 94 % of control and 108 % of control | [11] 104 % of control and 105 % of control | [12] 102 % of control and 108 % of control

Nc1n[nH]c2cccc(Cl)c12
inactive: dose: 50.0 mg/kg/injection, schedule: Q01DX009 (ip), vehicle: saline 96 % of control | [13] 104 % of control | [14] 96 % of control

CCCCOC(=O)CCSCCC(=O)OCCCC
inactive: [15] 102 % of control | [16] 94 % of control | [17] 102 % of control

Cc1nc2c(=O)[nH]n(C)c2nc1C
inactive: [15] 97 % of control | [16] 95 % of control | [17] 95 % of control

CC(CN=Cc1ccccc1[O-])N=Cc1ccccc1[O-].[O]=[V] (stereo not drawn)
inactive: dose: 5.0 mg/kg/injection, schedule: Q01DX009 (ip), vehicle: saline with Tween-80 94 % of control | dose: 10.0 mg/kg/injection, schedule: Q01DX009 (ip), vehicle: saline with Tween-80 91 % of control | dose: 20.0 mg/kg/injection, schedule: Q01DX009 (ip), vehicle: saline with Tween-80 97 % of control

[Cl][Pd][Cl].[NH-]C(c1ccccc1)C([NH-])c1ccccc1 (stereo not drawn)
inactive: [1] 93 % of control and 97 % of control | [2] 90 % of control and 118 % of control | [3] 88 % of control and 97 % of control

CCCCCOC(=S)S
inactive: dose: 9.37 mg/kg/injection, schedule: Q01DX009 (ip), vehicle: saline 100 % of control | dose: 18.75 mg/kg/injection, schedule: Q01DX009 (ip), vehicle: saline 110 % of control | dose: 37.5 mg/kg/injection, schedule: Q01DX009 (ip), vehicle: saline 98 % of control | dose: 100.0 mg/kg/injection, schedule: Q01DX001 (ip), vehicle: saline 109 % of control | dose: 200.0 mg/kg/injection, schedule: Q01DX001 (ip), vehicle: saline 103 % of control

CN(CCc1cn(C2OC(CO)C(O)C(O)C2O)cn1)C(=O)/C=C/c1ccccc1 (stereo not drawn)
inactive: dose: 100.0 mg/kg/injection, schedule: Q01DX005 (ip), vehicle: saline 112 % of control

CCCCCCCCCCP(=O)(CCCCCCCCCC)C(O)C(Cl)(Cl)Cl (stereo not drawn)
inactive: [18] 91 % of control | dose: 200.0 mg/kg/injection, schedule: Q01DX001 (ip), vehicle: saline with Tween-80 93 % of control | dose: 400.0 mg/kg/injection, schedule: Q01DX001 (ip), vehicle: saline with Tween-80 94 % of control

O=C(Nc1ccc(Cl)c(C(F)(F)F)c1)Oc1cccnc1
inactive: dose: 25.0 mg/kg/injection, schedule: Q01DX009 (ip), vehicle: Klucel (hydroxypropylcellulose) (HPC) 94 % of control | [4] 92 % of control and 93 % of control

Cc1ccc([I+]c2ccc(C)c(C)c2)cc1C
inactive: dose: 1.0 mg/kg/injection, schedule: Q01DX001 (ip), vehicle: acetone 102 % of control | dose: 2.0 mg/kg/injection, schedule: Q01DX001 (ip), vehicle: acetone 98 % of control | dose: 4.0 mg/kg/injection, schedule: Q01DX001 (ip), vehicle: acetone 105 % of control | dose: 5.9 mg/kg/injection, schedule: Q01DX001 (ip), vehicle: saline 103 % of control | dose: 9.0 mg/kg/injection, schedule: Q01DX001 (ip), vehicle: saline 97 % of control | dose: 13.0 mg/kg/injection, schedule: Q01DX001 (ip), vehicle: saline 100 % of control | dose: 19.0 mg/kg/injection, schedule: Q01DX001 (ip), vehicle: saline 102 % of control | dose: 29.0 mg/kg/injection, schedule: Q01DX001 (ip), vehicle: saline 101 % of control | dose: 45.0 mg/kg/injection, schedule: Q01DX001 (ip), vehicle: saline 98 % of control | dose: 65.0 mg/kg/injection, schedule: Q01DX001 (ip), vehicle: saline with Tween-80 96 % of control | [18] 97 % of control | dose: 150.0 mg/kg/injection, schedule: Q01DX001 (ip), vehicle: saline with Tween-80 94 % of control | dose: 225.0 mg/kg/injection, schedule: Q01DX001 (ip), vehicle: saline with Tween-80 102 % of control | dose: 340.0 mg/kg/injection, schedule: Q01DX001 (ip), vehicle: saline with Tween-80 96 % of control

Cc1cc(=O)[nH]c2c(C)cc(-c3cc(C)c4[nH]c(=O)cc(C)c4c3)cc12
inactive: [15] 101 % of control | [19] 98 % of control | [16] 97 % of control | [20] 91 % of control | [17] 92 % of control | [21] 98 % of control

O=C(O)C1CC1c1ccc(Br)cc1 (stereo not drawn)
inactive: [1] 123 % of control | [2] 100 % of control

CCCCN(C)N=Nc1c[nH]c(=O)[nH]c1=O
inactive: dose: 75.0 mg/kg/injection, schedule: Q01DX001 (ip), vehicle: other 95 % of control

O=C(Nc1ccc(F)cc1)OCCc1ccccn1
inactive: [7] 96 % of control | [4] 98 % of control and 101 % of control | [1] 94 % of control and 99 % of control | [8] 113 % of control | [9] 101 % of control | [5] 101 % of control and 106 % of control | [2] 94 % of control and 96 % of control | dose: 200.0 mg/kg/injection, schedule: Q04DX003 (ip), vehicle: Klucel (hydroxypropylcellulose) (HPC) 96 % of control | dose: 400.0 mg/kg/injection, schedule: Q01DX001 (ip), vehicle: Klucel (hydroxypropylcellulose) (HPC) 91 % of control | [6] 94 % of control and 91 % of control | [3] 97 % of control and 105 % of control | dose: 400.0 mg/kg/injection, schedule: Q04DX003 (ip), vehicle: Klucel (hydroxypropylcellulose) (HPC) 99 % of control

COc1ccc(/C(C)=C\C(=O)O)cc1
inactive: [15] 96 % of control | [10] 107 % of control | [16] 102 % of control | [11] 113 % of control | [17] 101 % of control | [12] 115 % of control

COc1ccc(/C=C2/COC/C(=C/c3ccc(OC)c(OC)c3)C2=O)cc1OC
inactive: [13] 98 % of control | [19] 101 % of control | [14] 93 % of control | [20] 95 % of control | dose: 400.0 mg/kg/injection, schedule: Q01DX009 (ip), vehicle: saline 90 % of control | [21] 93 % of control
